Assay results taken from BigSolDB 2.1.

CN1CCN(c2c(F)cc3c(=O)c(C(=O)O)cn4c3c2OCN4C)CC1
solubility (mole fraction)
Conditions | 283.15 K | 288.15 K | 293.15 K | 298.15 K | 303.15 K | 308.15 K | 313.15 K | 318.15 K | 323.15 K | 328.15 K
in 1,4-dioxane | – | 0.000114 | 0.000132 | 0.000153 | 0.000188 | 0.00023 | 0.00028 | 0.000348 | 0.000427 | 0.000512
in THF | – | 0.000432 | 0.000508 | 0.000591 | 0.00068 | 0.000777 | 0.000887 | 0.001 | 0.00113 | 0.00125
in acetone | 0.000219 | 0.000266 | 0.000316 | 0.000367 | 0.000425 | 0.000488 | 0.00057 | 0.000678 | 0.000796 | –
in acetonitrile | 0.000122 | 0.000147 | 0.000172 | 0.000213 | 0.00025 | 0.000298 | 0.000345 | 0.000422 | 0.000509 | –
in ethanol | 6.66e-05 | 7.84e-05 | 9.47e-05 | 0.000117 | 0.000144 | 0.000175 | 0.000217 | 0.000264 | 0.000326 | –
in ethyl acetate | 0.000154 | 0.000172 | 0.000197 | 0.000226 | 0.000255 | 0.000288 | 0.000326 | 0.000378 | 0.000432 | –
in isopropanol | 5.13e-05 | 6.16e-05 | 7.5e-05 | 9.22e-05 | 0.000107 | 0.00013 | 0.000164 | 0.000204 | 0.000259 | –
in methanol | 0.000127 | 0.000147 | 0.000173 | 0.000204 | 0.000249 | 0.000295 | 0.000354 | 0.000435 | 0.000521 | –
in n-butanol | 8.77e-05 | 0.0001 | 0.000116 | 0.00014 | 0.000169 | 0.000204 | 0.000254 | 0.000316 | 0.000408 | –
in n-propanol | 8.29e-05 | 9.58e-05 | 0.000114 | 0.000136 | 0.000164 | 0.000202 | 0.000253 | 0.000315 | 0.000391 | –
in tert-amyl alcohol | 7.86e-05 | 9.12e-05 | 0.000107 | 0.000122 | 0.00014 | 0.00017 | 0.000202 | 0.00024 | 0.00029 | –
in toluene | 4.91e-05 | 6.13e-05 | 7.24e-05 | 8.74e-05 | 0.000102 | 0.000117 | 0.000135 | 0.000155 | 0.00018 | –
